Test results from patent EP1351977B1, “ANTIMICROBIAL PSEUDOPEPTIDES” (INSTITUT NATIONAL DE LA RECHERCHE AGRONOMIQUE (INRA), priority 2001, dated 2004).
Read-outs that look alike come from different tables or passages of the source. Ends that are not written are not given here.

What was measured:
Type in all cases: cell-based
Cladosporium myc = assay: Antifungal growth inhibition test in liquid medium
Cladosporium sp = assay: Antifungal growth inhibition test in liquid medium
Piricularia oryzae sp = tested on: Piricularia oryzae sp
Escherichia coli CIP548 = assay: Bacterial growth inhibition test in Petri dish (solid medium), MIC; settings: MIC extrapolated from inhibition diameter vs log10 concentration
Bacillus megaterium = assay: as above; settings: MIC extrapolated from inhibition diameter vs log10 concentration
Phytophthora myc = assay: Antifungal growth inhibition test in liquid medium
Text: (§1) Les composés des pics 5, 7 et 8 de la figure 1 ont été testées vis-à-vis d'un ensemble de champignons phytopathogènes. Trois doses (10, 20, et 40 ppm) ont été employées pour chacun des composés.
(§2) L'activité antifongique a été détectée par un test d'inhibition de croissance en milieu liquide. Les spores des champignons à tester ont été mises en suspension dans un milieu de culture de type "Pomme de terre-Glucose". De préférence, on utilise 12 g de milieu Potato Dextrose Broth (Difco) pour 1 litre d'eau déminéralisée. Deux antibiotiques ont été rajoutés au milieu de culture: la tétracycline (concentration finale de 10 µg/ml) et la céfotaxime (100 µg/ml). On dépose 10 µl de chaque composé à tester dans des plaques de microtitration en présence de 90 µl de milieu de culture contenant les spores (à une concentration finale de 10^4 spores/ml). L'incubation a été réalisée en chambre humide à 30°C durant 48 heures. La croissance fongique a été observée au microscope photonique après 24 h et quantifiée après 48 heures par mesure de l'absorbance à 600 nm à l'aide d'un spectrophotomètre lecteur de plaque de microtitration. L'activité des composés contre les champignons phytopathogènes est exprimée par un pourcentage d'inhibition de croissance correspondant à 100 x (1 - absorbance avec produit/ absorbance du témoin sans produit), l'absorbance étant mesurée à 600 nm, 5 jours après le début de l'expérience.

Fusarium culmorum sp = assay: Antifungal growth inhibition test in liquid medium
Text: as §1, §2

Streptococcus Gr. D = assay: Bacterial growth inhibition test in Petri dish (solid medium), MIC; settings: MIC extrapolated from inhibition diameter vs log10 concentration

“Composé 8: pseudopeptide du pic n° 8 de Xenorhabdus nematophilus F1; Famille 1: Lys Lys Lys Lys Lys Gly; 1066 Da; structure en Figure 2 (KKKKKG; also: pseudopeptide modifications)” was tested, and the “pourcentage d'inhibition de croissance” value (Cladosporium myc; 10 ppm) was 70%, the “pourcentage d'inhibition de croissance” value (Cladosporium myc; 20 ppm) was 92% and the “pourcentage d'inhibition de croissance” value (Cladosporium myc; 40 ppm) was 91%. For the same substance, the “pourcentage d'inhibition de croissance” value (Cladosporium sp; 10 ppm) was 94%, the “pourcentage d'inhibition de croissance” value (Cladosporium sp; 20 ppm) was 94% and the “pourcentage d'inhibition de croissance” value (Cladosporium sp; 40 ppm) was 94%. For the same substance, the “pourcentage d'inhibition de croissance” value (Piricularia oryzae sp; 10 ppm) was 30%, the “pourcentage d'inhibition de croissance” value (Piricularia oryzae sp; 20 ppm) was 35% and the “pourcentage d'inhibition de croissance” value (Piricularia oryzae sp; 40 ppm) was 45%. For the same substance, the CMI (Escherichia coli CIP548) was 7,5 µg/ml, the CMI (Bacillus megaterium) was 1,5 µg/ml and the “pourcentage d'inhibition de croissance” value (Phytophthora myc; 10 ppm) was 76%. For the same substance, the “pourcentage d'inhibition de croissance” value (Phytophthora myc; 20 ppm) was 78%, the “pourcentage d'inhibition de croissance” value (Phytophthora myc; 40 ppm) was 77% and the “pourcentage d'inhibition de croissance” value (Fusarium culmorum sp; 10 ppm) was 96%. The “pourcentage d'inhibition de croissance” value (Fusarium culmorum sp; 20 ppm) was 96%, the “pourcentage d'inhibition de croissance” value (Fusarium culmorum sp; 40 ppm) was 96% and the CMI (Streptococcus Gr. D) was 200 µg/mL.
